Assays:
Assay type in all cases: in vivo
Alternaria solani = test: Alternaria test (tomato)/protective; details: 72 h, 100 ppm active substance, protective, evaluation 3 days after inoculation, read-out: degree of effectiveness
Description: (§1) • Solvents: 24.5 parts by weight of acetone • 24.5 parts by weight of dimethylacetamide • Emulsifier: 1 part by weight of alkylaryl polyglycol ether (polyoxyethylene (16) tristearylphenyl ether)
To prepare a suitable active substance composition, 1 part by weight of substance is mixed with the given amounts of solvents and emulsifier and the concentrate is diluted to the desired concentration using water.
For the testing of protective effectiveness, young plants are sprayed with the active substance composition in the application rate given. After the spray coating has been dried on, the plants are inoculated with an aqueous suspension of spores of Alternaria solani. The plants are then placed in an incubation chamber at approximately 20° C. and 100% relative humidity.
Evaluation is carried out 3 days after the inoculation. In this connection, 0% means a degree of effectiveness corresponding to that of the control, while a degree of effectiveness of 100% means that no infestation is observed.

[1] = tested on: bean rust pathogen Uromyces appendiculatus; test: Uromyces test (beans)/protective; details: 240 h, 100 ppm active substance, protective, evaluation 10 days after inoculation, read-out: degree of effectiveness
Description: as §1
To prepare a suitable active substance composition, 1 part by weight of active substance is mixed with the given amounts of solvents and emulsifier and the concentrate is diluted to the desired concentration using water.
For the testing of protective effectiveness, young plants are sprayed with the active substance composition in the application rate given. After the spray coating has been dried on, the plants are inoculated with an aqueous suspension of the spores of the bean rust pathogen Uromyces appendiculatus and then remain in an incubation chamber at approximately 20° C. and 100% relative humidity for 1 day.
The plants are then placed in a greenhouse at approximately 21° C. and a relative humidity of approximately 90%.
Evaluation is carried out 10 days after the inoculation. In this connection, 0% means a degree of effectiveness corresponding to that of the control, while a degree of effectiveness of 100% means that no infestation is observed.

Sphaerotheca fuliginea = test: Sphaerotheca test (cucumber)/protective; details: Podosphaera fuliginea, 168 h, 500 ppm active substance, protective, evaluation 7 days after inoculation, read-out: degree of effectiveness
Description: • Solvent: 49 parts by weight of N,N-dimethylformamide • Emulsifier: 1 part by weight of alkylaryl polyglycol ether (polyoxyethylene (16) tristearylphenyl ether) To prepare a suitable active substance composition, 1 part by weight of active substance is mixed with the given amounts of solvents and emulsifier and the concentrate is diluted to the desired concentration using water. For the testing of protective effectiveness, young cucumber plants are sprayed with the active substance composition in the application rate given. One day after treatment, the plants are inoculated with a suspension of spores of Sphaerotheca fuliginea. The plants are then placed in a greenhouse at 70% relative humidity and a temperature of 23° C. Evaluation is carried out 7 days after the inoculation. In this connection, 0% means a degree of effectiveness corresponding to that of the control, while a degree of effectiveness of 100% means that no infestation is observed.

Puccinia triticina [2] = test: Puccinia triticina test (wheat)/protective; details: 192 h, 500 ppm active substance, protective, evaluation 8 days after inoculation, read-out: degree of effectiveness
Description: (§2) • Solvent: 50 parts by weight of N,N-dimethylacetamide • Emulsifier: 1 part by weight of alkylaryl polyglycol ether (polyoxyethylene (16) tristearylphenyl ether)
(§3) To prepare a suitable active substance composition, 1 part by weight of active substance is mixed with the given amounts of solvent and emulsifier and the concentrate is diluted to the desired concentration using water.
For the testing of protective effectiveness, young plants are sprayed with the active substance composition in the application rate given. After the spray coating has been dried on, the plants are sprayed with a suspension of spores of Puccinia triticina. The plants remain in an incubation chamber at 20° C. and 100% relative humidity for 48 hours. The plants are placed in a greenhouse at a temperature of approximately 20° C. and a relative humidity of approximately 80%.
(§4) Evaluation is carried out 8 days after the inoculation. In this connection, 0% means a degree of effectiveness corresponding to that of the control, while a degree of effectiveness of 100% means that no infestation is observed.

Puccinia triticina [3] = test: Puccinia triticina test (wheat)/curative; details: 192 h, 500 ppm active substance, curative, evaluation 8 days after inoculation, read-out: degree of effectiveness
Description: as §2, §3
For the testing of curative effectiveness, young plants are sprayed with a suspension of spores of Puccinia triticina. The plants remain in an incubation chamber at 20° C. and 100% relative humidity for 48 hours and are then sprayed with the active substance composition in the application rate given. The plants are placed in a greenhouse at a temperature of approximately 20° C. and a relative humidity of approximately 80%.
as §4

CCN(C)/C=N/c1cc(C)c(Oc2nc(C(C)(C)C)ns2)cc1Cl [Compound 1, N′-{4-[(3-(tert-butyl)-1,2,4-thiadiazol-5-yl)oxy]-2-chloro-5-methylphenyl}-N-ethyl-N-methylimidoformamide]
≥ 70%: pest or weed control at 100 ppm (Alternaria solani) | pest or weed control at 100 ppm [1] | pest or weed control at 500 ppm (Sphaerotheca fuliginea) | pest or weed control at 500 ppm (Puccinia triticina [2]) | pest or weed control at 500 ppm (Puccinia triticina [3])

CCN(C)/C=N/c1cc(C)c(Oc2nc(C(C)(C)C)ns2)cc1Br [Compound 2, N′-{2-bromo-4-[(3-(tert-butyl)-1,2,4-thiadiazol-5-yl)oxy]-5-methylphenyl}-N-ethyl-N-methylimidoformamide]
≥ 70%: pest or weed control at 100 ppm (Alternaria solani) | pest or weed control at 100 ppm [1] | pest or weed control at 500 ppm (Sphaerotheca fuliginea) | pest or weed control at 500 ppm (Puccinia triticina [2]) | pest or weed control at 500 ppm (Puccinia triticina [3])

CCN(C)/C=N/c1cc(C)c(Oc2nc(C(C)c3ccc(Cl)cc3)ns2)cc1Cl (stereo not shown) [Compound 6]
≥ 70%: pest or weed control at 100 ppm [1] | pest or weed control at 500 ppm (Sphaerotheca fuliginea) | pest or weed control at 500 ppm (Puccinia triticina [2]) | pest or weed control at 500 ppm (Puccinia triticina [3])

Cc1cc(N=CN(C)C(C)C)c(Cl)cc1Oc1nc(C(C)c2ccc(Cl)cc2)ns1 (stereo not shown) [Compound 8, N′-[2-chloro-4-({3-[1-(4-chlorophenyl)ethyl]-1,2,4-thiadiazol-5-yl}oxy)-5-methylphenyl]-N-methyl-N-(propan-2-yl)imidoformamide]
≥ 70%: pest or weed control at 100 ppm [1] | pest or weed control at 500 ppm (Sphaerotheca fuliginea)

CCN(C)/C=N/c1cc(C)c(Oc2nc(C(C)(C)c3ccc(Cl)cc3)ns2)cc1Cl [Compound 11, N′-[2-chloro-4-({3-[2-(4-chlorophenyl)propan-2-yl]-1,2,4-thiadiazol-5-yl}oxy)-5-methylphenyl]-N-ethyl-N-methylimidoformamide]
≥ 70%: pest or weed control at 100 ppm (Alternaria solani) | pest or weed control at 500 ppm (Sphaerotheca fuliginea) | pest or weed control at 500 ppm (Puccinia triticina [2]) | pest or weed control at 500 ppm (Puccinia triticina [3])

Cc1cc(N=CN(C)C(C)C)c(Cl)cc1Oc1nc(C(C)(C)c2ccc(Cl)cc2)ns1 [Compound 13, N′-[2-chloro-4-({3-[2-(4-chlorophenyl)propan-2-yl]-1,2,4-thiadiazol-5-yl}oxy)-5-methylphenyl]-N-methyl-N-(propan-2-yl)imidoformamide]
≥ 70%: pest or weed control at 100 ppm (Alternaria solani) | pest or weed control at 500 ppm (Sphaerotheca fuliginea) | pest or weed control at 500 ppm (Puccinia triticina [2]) | pest or weed control at 500 ppm (Puccinia triticina [3])

CCN(C)/C=N/c1cc(C)c(Oc2nc(Cc3ccccc3)ns2)cc1Cl [Compound 14, N′-{4-[(3-benzyl-1,2,4-thiadiazol-5-yl)oxy]-2-chloro-5-methylphenyl}-N-ethyl-N-methylimidoformamide]
≥ 70%: pest or weed control at 100 ppm (Alternaria solani) | pest or weed control at 100 ppm [1] | pest or weed control at 500 ppm (Sphaerotheca fuliginea) | pest or weed control at 500 ppm (Puccinia triticina [2]) | pest or weed control at 500 ppm (Puccinia triticina [3])

CCN(C)C=Nc1cc(C)c(Oc2nc(/C=C/c3ccc(F)cc3)ns2)cc1Cl [Compound 15, N′-[2-chloro-4-({3-[(E)-2-(4-fluorophenyl)ethenyl]-1,2,4-thiadiazol-5-yl}oxy)-5-methylphenyl]-N-ethyl-N-methylimidoformamide]
≥ 70%: pest or weed control at 100 ppm (Alternaria solani) | pest or weed control at 100 ppm [1] | pest or weed control at 500 ppm (Sphaerotheca fuliginea) | pest or weed control at 500 ppm (Puccinia triticina [2]) | pest or weed control at 500 ppm (Puccinia triticina [3])

CCN(C)C=Nc1cc(C)c(Oc2nc(C3(c4ccc(Cl)cc4)CC3)ns2)cc1Cl [Compound 17, N′-[2-chloro-4-({3-[1-(4-chlorophenyl)cyclopropyl]-1,2,4-thiadiazol-5-yl}oxy)-5-methylphenyl]-N-ethyl-N-methylimidoformamide]
≥ 70%: pest or weed control at 100 ppm (Alternaria solani) | pest or weed control at 100 ppm [1] | pest or weed control at 500 ppm (Sphaerotheca fuliginea) | pest or weed control at 500 ppm (Puccinia triticina [2]) | pest or weed control at 500 ppm (Puccinia triticina [3])

CCN(C)/C=N/c1cc(C)c(Oc2nc(Cc3ccc(Cl)cc3)ns2)cc1Cl [Compound 18, N′-(2-chloro-4-{[3-(4-chlorobenzyl)-1,2,4-thiadiazol-5-yl]oxy}-5-methylphenyl)-N-ethyl-N-methylimidoformamide]
≥ 70%: pest or weed control at 100 ppm [1] | pest or weed control at 500 ppm (Sphaerotheca fuliginea) | pest or weed control at 500 ppm (Puccinia triticina [2]) | pest or weed control at 500 ppm (Puccinia triticina [3])

CCCN(C)/C=N/c1cc(C)c(Oc2nc(C(C)(C)C)ns2)cc1Cl [Compound 24, N′-{4-[(3-(tert-butyl)-1,2,4-thiadiazol-5-yl)oxy]-2-chloro-5-methylphenyl}-N-methyl-N-propylimidoformamide]
≥ 70%: pest or weed control at 100 ppm (Alternaria solani) | pest or weed control at 500 ppm (Sphaerotheca fuliginea) | pest or weed control at 500 ppm (Puccinia triticina [2]) | pest or weed control at 500 ppm (Puccinia triticina [3])

CCN(C)C=Nc1cc(C)c(Oc2nc(C3(C)CC3(Cl)Cl)ns2)cc1Cl (stereo not shown) [Compound 32, N′-(2-chloro-4-{[3-(2,2-dichloro-1-methylcyclopropyl)-1,2,4-thiadiazol-5-yl]oxy}-5-methylphenyl)-N-ethyl-N-methylimidoformamide]
≥ 70%: pest or weed control at 100 ppm (Alternaria solani) | pest or weed control at 100 ppm [1] | pest or weed control at 500 ppm (Sphaerotheca fuliginea) | pest or weed control at 500 ppm (Puccinia triticina [2]) | pest or weed control at 500 ppm (Puccinia triticina [3])

CCN(C)/C=N/c1cc(C)c(Oc2nc(Cc3ccc(Br)cc3)ns2)cc1Cl [Compound 33, N′-(4-{[3-(4-bromobenzyl)-1,2,4-thiadiazol-5-yl]oxy}-2-chloro-5-methylphenyl)-N-ethyl-N-methylimidoformamide]
≥ 70%: pest or weed control at 100 ppm (Alternaria solani) | pest or weed control at 500 ppm (Sphaerotheca fuliginea) | pest or weed control at 500 ppm (Puccinia triticina [2]) | pest or weed control at 500 ppm (Puccinia triticina [3])

CCN(C)/C=N/c1cc(C)c(Oc2nc(Cc3ccc(Cl)cc3Cl)ns2)cc1Cl [Compound 38, N′-(2-chloro-4-{[3-(2,4-dichlorobenzyl)-1,2,4-thiadiazol-5-yl]oxy}-5-methylphenyl)-N-ethyl-N-methylimidoformamide]
≥ 70%: pest or weed control at 100 ppm [1] | pest or weed control at 500 ppm (Sphaerotheca fuliginea) | pest or weed control at 500 ppm (Puccinia triticina [2]) | pest or weed control at 500 ppm (Puccinia triticina [3])

CCN(C)/C=N/c1cc(C)c(Oc2nc(Cc3ccc(F)cc3F)ns2)cc1Cl [Compound 40, N′-(2-chloro-4-{[3-(2,4-difluorobenzyl)-1,2,4-thiadiazol-5-yl]oxy}-5-methylphenyl)-N-ethyl-N-methylimidoformamide]
≥ 70%: pest or weed control at 100 ppm (Alternaria solani) | pest or weed control at 500 ppm (Sphaerotheca fuliginea) | pest or weed control at 500 ppm (Puccinia triticina [2]) | pest or weed control at 500 ppm (Puccinia triticina [3])
